Like-named read-outs stand apart in the source and are kept apart here.
Key:
[1] = target: T1, CD45 (Homo sapiens, UniProt P08575); experiment: Phosphatase assay using pNPP as substrate; type: biochemical; conditions: CD45 phosphatase, pNPP substrate, pH 7.0; read-out: pNPP IC50
T1 construct: incubating the cytosolic portion of CD45 with the compounds and p-nitrophenyl phosphate (pNPP); purchased BIOMOL (Plymouth Meeting, Pa.)
T1 sequence (P08575 599-1306 limits assumed): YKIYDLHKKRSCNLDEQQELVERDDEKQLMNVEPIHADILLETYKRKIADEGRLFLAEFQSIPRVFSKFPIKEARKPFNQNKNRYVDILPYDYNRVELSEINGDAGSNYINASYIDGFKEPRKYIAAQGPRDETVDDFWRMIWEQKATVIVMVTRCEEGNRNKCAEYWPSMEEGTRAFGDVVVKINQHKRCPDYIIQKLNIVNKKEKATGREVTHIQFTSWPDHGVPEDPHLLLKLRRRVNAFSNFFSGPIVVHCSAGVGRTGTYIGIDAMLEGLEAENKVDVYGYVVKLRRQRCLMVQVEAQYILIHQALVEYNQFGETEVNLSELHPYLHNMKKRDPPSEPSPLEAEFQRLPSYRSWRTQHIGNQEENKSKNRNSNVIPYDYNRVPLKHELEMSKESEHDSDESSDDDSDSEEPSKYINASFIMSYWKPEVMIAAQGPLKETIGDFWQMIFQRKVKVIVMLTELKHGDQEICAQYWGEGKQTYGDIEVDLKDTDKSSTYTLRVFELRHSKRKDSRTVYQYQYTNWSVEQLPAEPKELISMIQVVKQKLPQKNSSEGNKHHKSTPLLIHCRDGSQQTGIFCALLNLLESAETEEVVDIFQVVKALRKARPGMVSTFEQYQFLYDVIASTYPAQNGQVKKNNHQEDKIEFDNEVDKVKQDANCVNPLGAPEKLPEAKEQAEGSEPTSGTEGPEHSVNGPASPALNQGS
Experimental: Phosphatase assay using pNPP as substrate:
CD45 enzyme was obtained from BIOMOL (Plymouth Meeting, Pa.). Phosphatase activity was assayed in a buffer containing final concentrations of 25 mM imidazole at pH 7.0, 50 mM NaCl, 2.5 mM ethylenediaminetetraacetic acid (“EDTA”), 5 mM dithiothreitol (“DTT”) and 10 μg/mL bovine serum albumin (“BSA”) using pNPP as a substrate.

[2] = target: T1, CD45; experiment: Phosphatase assay using lck 10-mer as substrate; type: biochemical; conditions: CD45 phosphatase, lck carboxy-terminal peptide TEGQpYQPQP substrate, pH 7.2; read-out: Ick IC50
Experimental: Phosphatase assay using lck 10-mer as substrate:
Phosphatase activity was assayed in 96 well plates in a buffer containing final concentrations of 25 mM HEPES at pH 7.2, 5 mM DTT and 10 μg/mL BSA using the lck carboxy-terminal peptide TEGQpYQPQP as the substrate (Cho, H., Krishnaraj, R., Itoh, M., Kitas, E., Bannwarth, W., Saito, H., Walsh, C. T. 1993. Substrate specificities of catalytic fragments of protein tyrosine phosphatases (HPTPb, LAR, and CD45) toward the phosphotyrosylpeptide substrates and thiophosphotyrosylated peptides as inhibitors. Protein Science 2:977-984). Compounds were tested in a range from 30 to 0.01 μM in a final concentration of 5% DMSO. Enzyme was incubated with substrate with or without compound, at room temperature for 1.5 h. At the end of the incubation period, BIOMOL “Green Reagent” (BIOMOL, Plymouth Meeting, Pa.) was added to each well, the plates incubated at room temperature for 30 min and absorbance read at 620 nm.

[3] = test system: T cells (PBMC); experiment: cells; type: cell-based, human; conditions: read-out: T cell prolif. IC50
Experimental: Cell isolation and T cell proliferation assay:
Whole blood was obtained from healthy human blood donors. Peripheral blood mononuclear cells (“PBMC”) were isolated using Lymphoprep density-gradient centrifugation (Nycomed Amersham, Oslo, Norway), washed, counted and resuspended at 2×10^6 cells/mL in RPMI 1640 medium containing glutamine, 0.1 mg/mL gentamycin and 10% heat inactivated human serum. PBMC were transferred to 96-well plates (2×10^5 cells/well) containing compound or vehicle control, with the final concentration of DMSO not to exceed 0.3%, and incubated for 1 hour before addition of the activating anti-CD3 antibody, OKT3 (30ng/mL). After 24 hours in culture, the cells were pulsed with [^3H]thymidine (1 μCi/well) overnight and harvested the next day onto 96-well Packard GF/C filter plates using a Packard Cell Harvester (Packard Instruments, Meriden, Conn.). The filter plate was dried, the bottom of the plate sealed, 25 μL of Microscint 20 scintillation fluid added to each well, the top of the plate sealed with TopSeal-A, and the plate counted on a Packard TopCount. The data from the TopCount is transferred into Excel 5 (Microsoft, Redmond, Wash.) and formatted for EC50 determination using Prism software (GraphPad Software, San Diego, Calif.).

[4] = Cytotoxicity assay (Calcein-AM uptake); conditions: human, PHA-expanded T-cell lymphoblasts from PBMC
[5] = human PBMC, OKT3 30 ng/mL, [3H]thymidine

SMILES | IC50 [1] | IC50 [2] | IC50 [3, 5] | CC50 [4] | IC50 ([3]; Homo sapiens)
COC(=O)CCCC(=O)Nc1ccc2c(c1)-c1ccccc1C(=O)C2=O [Example 77, 4-(9,10-Dioxo-9,10-dihydro-phenanthren-3-ylcarbamoyl)-butyric Acid Methyl Ester] | 800 nM | 2900 nM | 1600 nM | 9000 nM | –
COC(=O)CCC(=O)Nc1ccc2c(c1)C(=O)C(=O)c1ccccc1-2 [Example 80, N-(9,10-Dioxo-9,10-dihydro-phenanthren-2-yl)-succinamic Acid Methyl Ester] | 5900 nM | 4900 nM | 700 nM | 6500 nM | –
CC(=O)Nc1ccc2c(c1)C(=O)C(=O)c1ccccc1-2 [Example 81, N-(9,10-Dioxo-9,10-dihydro-phenanthren-2-yl)-acetamide] | 1200 nM | 2500 nM | 200 nM | 900 nM | –
Nc1ccc2c(c1)C(=O)C(=O)c1cccc([N+](=O)[O-])c1-2 [Example 84, 2-amino-5-nitro-phenanthrene-9,10-dione] | 800 nM | 2600 nM | 700 nM | 4000 nM | –
Nc1ccc2c(c1)C(=O)C(=O)c1cccc(N)c1-2 [Example 85, 2,5-diamino-phenanthrene-9,10-dione] | 1400 nM | 2800 nM | 500 nM | 4000 nM | –
Nc1cccc2c1-c1ccccc1C(=O)C2=O [Example 89, 4-Amino-phenanthrene-9,10-dione] | 800 nM | 2900 nM | 200 nM | 9000 nM | –
COC(=O)CCC(=O)Nc1cccc2c1C(=O)C(=O)c1ccccc1-2 [Example 91, N-(9,10-Dioxo-9,10-dihydro-phenanthren-1-yl)-succinamic Acid Methyl Ester] | 400 nM | 4700 nM | 500 nM | 9000 nM | –
O=C1C(=O)c2cc([N+](=O)[O-])ccc2-c2ccccc21 [Example 92, 2-Nitro-phenanthrene-9,10-dione] | 2400 nM | 5400 nM | 1600 nM | 10000 nM | –
O=C1C(=O)c2cc([N+](=O)[O-])ccc2-c2ccc([N+](=O)[O-])cc21 [Example 94, 2,7-Dinitro-phenanthrene-9,10-dione] | 4100 nM | 5000 nM | – | 8000 nM | 500 nM
O=C1C(=O)c2cc(Br)ccc2-c2ccccc21 [Example 96, 2-Bromo-phenanthrene-9,10-dione] | 370 nM | 3100 nM | 600 nM | 5000 nM | –
O=C(O)c1ccc2c(c1)C(=O)C(=O)c1ccccc1-2 [Example 97, 9,10-Dioxo-9,10-dihydro-phenanthrene-2-carboxylic Acid] | 1000 nM | 3300 nM | > 30000 nM | > 30000 nM | –
O=C1C(=O)c2ccc([N+](=O)[O-])cc2-c2ccccc21 [Example 99, 3-Nitro-phenanthrene-9,10-dione] | 500 nM | 4900 nM | 200 nM | 2800 nM | –
CC(=O)c1ccc2c(c1)-c1ccccc1C(=O)C2=O [Example 100, 3-Acetyl-phenanthrene-9,10-dione] | 800 nM | 4200 nM | 800 nM | 3500 nM | –
CC(=O)c1ccc2c(c1)C(=O)C(=O)c1ccccc1-2 [Example 101, 2-Acetyl-phenanthrene-9,10-dione] | 800 nM | 2900 nM | 1100 nM | 4500 nM | –
CC(C)(C)OC(=O)CNC(=O)c1ccc2c(c1)C(=O)C(=O)c1ccccc1-2 [Example 103, [(9,10-Dioxo-9,10-dihydro-phenanthrene-2-carbonyl)-amino]-acetic acid tert-butyl ester] | 600 nM | 4900 nM | 400 nM | 10000 nM | –
O=C(O)CNC(=O)c1ccc2c(c1)-c1ccccc1C(=O)C2=O [Example 104, [(9,10-dioxo-9,10-dihydro-phenanthrene-3-carbonyl)-amino]-acetic acid] | 500 nM | 3400 nM | 6500 nM | > 30000 nM | –

Reference: patent US20030207812A1, “Cd45 inhibitors” (priority 2002, published 2003)
